Patent US12491185B2, “Inhibitors of mPTP” (NRG Therapeutics Ltd, priority 2023, dated 2025)

Columns and labels:
mPTP [1] = assay: mPTP activity assay in isolated rat brain mitochondria; assay type: biochemical; details: fluorescence at 10 min timepoint
In short: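 Fresh brain mitochondria from female Sprague Dawley rats, digitonin-washed, in pH 7.4 mannitol/MOPS/KCl buffer with pyruvate, malate, ADP, oligomycin A and 2 μM Fluo5N. Preincubated with compounds 10 min at RT. Fluo5N fluorescence then read every 3 sec for 10 min on FLIPR Tetra.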

mPTP [2] = assay: mPTP activity (Ca2+ retention) assay in isolated rat liver mitochondria; assay type: biochemical; details: for mPTP Rat liver pIC50: examples tested by different contract research organisations, believed comparable
In short: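 pIC50 was taken from Fluo5N fluorescence at 10 min after a 75 μM CaCl2 bolus, scaled between DMSO (0%) and 5 μM cyclosporin A (100%). Compounds, ten half-log concentrations from 30 μM to 1 nM final, sat 10 min at RT with fresh female Sprague Dawley rat liver mitochondria energized by succinate plus rotenone.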

mPTP [3] = assay: Human platelet mitochondria assay (annexin V / PS exposure by flow cytometry); assay type: cell-based; details: human blood platelets stimulated with thrombin/convulxin/calcium; % AnV-APC positive platelets
Procedure: The mPTP cell based assay was performed using a transformative functional cell-(human blood platelets)-based assay by flow cytometry. Procoagulant platelets expose phosphatidylserine (PS), allowing a burst of thrombin generation that is responsible for producing an occlusive thrombus. While an increase in cytosolic Ca^2+ concentration is required for deriving platelets to become activated, a higher and more sustained increases in cytosolic Ca^2+ concentration is needed to commit some platelets to becoming procoagulant. Simulation of platelets results in the rapid influx of Ca^2+ across the platelet membrane. The Ca^2+ is then sequestered by mitochondria until the threshold for mPTP opening is reached, at which point the pore opens and the mitochondrial membrane potential is dissipated. mPTP opening and subsequent disruption in mitochondrial membrane potential leads to release of a high concentration of calcium stored in mitochondria into the platelet's cytosol (“supramaximal calcium signal” [1]) which is known to be a requisite initiating signal transduction leading to externalisation of procoagulant PS to the outer leaflet of platelets' plasma membrane. PS externalisation of stimulated platelets can be quantified in live platelets using standard annexin V (AnV) labelling by flow cytometry, enabling pharmacological characterisation of mPTP inhibitors.
Fresh human blood (9 ml) was collected from consenting donors into 3.2% sodium citrate. Acid citrate dextrose (85 mM tri-sodium citrate, 71 mM citric acid, and 111 mM D-glucose) was added (1:7 vol/vol) and platelet-rich plasma was separated by centrifugation (200 g, 10 minutes, ambient temperature, and without any brake). Platelets were pelleted by centrifugation (600 g, 10 minutes, ambient temperature) in the presence of prostaglandin E1 (100 nM) and apyrase (0.02 U/mL). Pelleted platelets were resuspended in N-2-hydroxyethylpiperazine-N′-2-ethanesulfonic acid (HEPES)-buffered saline supplemented with D-glucose (135 mM NaCl, 10 mM HEPES, 3 mM KCl, 1 mM MgCl2, 0.34 mM NaH2PO4, 5 mM D-glucose, 0.1% bovine serum albumin, pH 7.4.) and apyrase (0.02 U/mL). Platelets were rested for 30 minutes at 30° C. before treatment protocols were initiated.
Test compounds were prepared from 10 mM stocks in DMSO. Serial dilution of search test compounds stamped in duplicate into a 96 well plate using Multidrop Pico 8 Digital Dispenser. Platelets were loaded and incubated for 30 min at room temperature. Then a stimulation mix containing Thrombin (FAC: 0.5 U/ml)/Convulxin (FAC: 0.05 μg/ml)/Calcium (FAC: 2 mM) added per well except control/not stimulated wells (This is low signal control). Some wells received no treatment but DMSO vehicle control and used as high signal controls (FAC of DMSO set at 0.1% in all wells of the 96 well plate). The reaction mix incubated for 10 min at room temperature. During last 2 min of stimulation AnV-APC was added to detect surface PS exposure. Samples ten fixed and fluorescence was detected by MACSQuant X flow cytometry and 10 000 platelet events were collected. The percentage of AnV-APC positive platelets was calculated for each well. IC50 for each compound was then calculated using a standard four parameter curve fit model (GraphPad Prism).

Row | SMILES | mPTP Rat brain pIC50 (mPTP [1]) | mPTP Rat liver pIC50 (mPTP [2]) | pIC50 (mPTP [3]) | mPTP pIC50 rat liver mitochondria (mPTP [2]; Fluo5N fluorescence at 10 min after 75 μM CaCl2)
1 | CC(c1ccccc1)C1(CNC(=O)c2nn(C)c(=O)[nH]2)CCC1 (single isomer, unassigned) [Example 26, 1-methyl-5-oxo-N-((1-(1-phenylethyl)cyclobutyl)methyl)-4,5-dihydro-1H-1,2,4-triazole-3-carboxamide] | 7.60 | 6.87 | 6.77 | 
2 | CC(c1ccccc1)C1(CNC(=O)c2nn(C)c(=O)[nH]2)CCC1 (single isomer, unassigned) [Example 27, 1-methyl-5-oxo-N-((1-(1-phenylethyl)cyclobutyl)methyl)-4,5-dihydro-1H-1,2,4-triazole-3-carboxamide] | 6.25 | 5.49 | 5.70 | 
3 | O=C(NCC1(Cc2ccc(F)cc2F)CC12CC2)c1nccc(=O)[nH]1 (single isomer, unassigned) [Example 235] | 7.65 | 6.79 | 7.31 | 
4 | Cn1nc(C(=O)NCC(C)(Cc2ccc(F)cc2F)C2CC2)[nH]c1=O (single isomer, unassigned) [Example 239, N-(2-cyclopropyl-3-(2,4-difluorophenyl)-2-methylpropyl)-1-methyl-5-oxo-4,5-dihydro-1H-1,2,4-triazole-3-carboxamide] | 8.07 | 7.10 | 7.39 | 
5 | CC(CNC(=O)c1nccc(=O)[nH]1)(Cc1ccc(F)cc1F)C1CC1 (single isomer, unassigned) [Example 243, N-(2-cyclopropyl-3-(2,4-difluorophenyl)-2-methylpropyl)-6-oxo-1,6-dihydropyrimidine-2-carboxamide] | 7.93 | 6.91 | 7.36 | 
6 | CC(CNC(=O)c1nccc(=O)[nH]1)(Cc1ccc(F)cc1F)C1CC1 (single isomer, unassigned) [Example 244, N-(2-cyclopropyl-3-(2,4-difluorophenyl)-2-methylpropyl)-6-oxo-1,6-dihydropyrimidine-2-carboxamide] | 7.53 | 6.73 | 7.14 | 
7 | O=C(NCC1(Cc2ccc(F)cc2F)CC(F)C1)c1nccc(=O)[nH]1 (single isomer, unassigned) [Example 247] | 7.26 | 6.27 | 6.52 | 
8 | CC(CNC(=O)c1nccc(=O)[nH]1)(Cc1ccc(F)cc1)C1CC1 (single isomer, unassigned) [Example 252] | 7.91 | 6.82 | 7.42 | 
9 | Cn1nc(C(=O)NCC2(Cc3ccc(F)cc3F)CCC2)[nH]c1=O [Example 22, N-((1-(2,4-difluorobenzyl)cyclobutyl)methyl)-1-methyl-5-oxo-4,5-dihydro-1H-1,2,4-triazole-3-carboxamide] | 7.75 | 6.79 | 7.14 | 
10 | Cn1nc(C(=O)NC[C@H](Cc2ccc(F)cc2F)C2CC2)[nH]c1=O [Example 96, (R)—N-(2-Cyclopropyl-3-(2,4-difluorophenyl)propyl)-1-methyl-5-oxo-4,5-dihydro-1H-1,2,4-triazole-3-carboxamide] | 7.91 | 6.76 | 7.43 | 
11 | Cn1nc(C(=O)NC[C@H](Cc2c(F)cc(F)cc2F)C2CC2)[nH]c1=O [Example 117, (R)—N-(2-cyclopropyl-3-(2,4,6-trifluorophenyl)propyl)-1-methyl-5-oxo-4,5-dihydro-1H-1,2,4-triazole-3-carboxamide] | 7.56 | 6.47 | 6.90 | 
12 | Cn1nc(C(=O)NC[C@H](Cc2ccc(F)cc2)C2CC2)[nH]c1=O [Example 190] | 7.75 | 7.31 | 7.23 | highest activity
13 | O=C(NCC1(Cc2ccc(F)cc2F)CCC1)c1noc(=O)[nH]1 [Example 205] | 7.38 | 6.15 |  | 
14 | O=C(NC[C@H](Cc1cc(F)ccc1F)C1CC1)c1noc(=O)[nH]1 [Example 207] | 7.65 | 6.12 |  | 
15 | CC(c1ccc(F)cc1F)[C@@H](CNC(=O)c1nn(C)c(=O)[nH]1)C1CC1 (some centres unmarked) [Example 238] | 6.21 | 5.15 |  | 
16 | Cn1nc(C(=O)NC[C@H](Cc2ccc(F)cc2Cl)C2CC2)[nH]c1=O [Example 241, (R)-N-(3-(2-chloro-4-fluorophenyl)-2-cyclopropylpropyl)-1-methyl-5-oxo-4,5-dihydro-1H-1,2,4-triazole-3-carboxamide] | 7.73 | 6.81 |  | 
17 | Cn1nc(C(=O)NC[C@@H](Cc2ccc(F)cc2Cl)C2CC2)[nH]c1=O [Example 242] | 5.39 | 4.95 |  | 
18 | Cn1nc(C(=O)NC[C@H](Cc2ccc(F)cc2F)CC(F)(F)F)[nH]c1=O [Example 245, (R)-N-(2-(2,4-difluorobenzyl)-4,4,4-trifluorobutyl)-1-methyl-5-oxo-4,5-dihydro-1H-1,2,4-triazole-3-carboxamide] | 7.44 | 6.13 |  | 
19 | Cn1nc(C(=O)NC[C@@H](Cc2ccc(F)cc2F)CC(F)(F)F)[nH]c1=O [Example 246] | 5.85 | 4.56 |  | 
20 | O=C(NC[C@@H](Cc1ccc(F)cc1)C1CC1)c1nccc(=O)[nH]1 [Example 249] |  |  | 6.52 | 
21 | C[C@@](CNC(=O)c1ncc(Cl)c(=O)[nH]1)(Cc1ccc(F)cc1F)C1CC1 [Example 259, 5-chloro-N-[(2R)-2-cyclopropyl-3-(2,4-difluorophenyl)-2-methylpropyl]-4-oxo-3H-pyrimidine-2-carboxamide] | 8.22 | 6.46 |  | 
22 | C[C@](CNC(=O)c1ncc(Cl)c(=O)[nH]1)(Cc1ccc(F)cc1F)C1CC1 [Example 260, 5-chloro-N-[(2S)-2-cyclopropyl-3-(2,4-difluorophenyl)-2-methylpropyl]-4-oxo-3H-pyrimidine-2-carboxamide] | 7.50 | 5.78 |  | 
23 | Cn1nc(C(=O)N2CCC(C)(c3ccccc3)C2)[nH]c1=O (centres unmarked) [Reference Example 101, 2-methyl-5-(3-methyl-3-phenylpyrrolidine-1-carbonyl)-2,4-dihydro-3H-1,2,4-triazol-3-one] | <4.52 | <4.57 |  | 
24 | Cn1nc(C(=O)N2CCC(c3ccccc3)CC2)[nH]c1=O [Reference Example 115, 2-methyl-5-(4-phenylpiperidine-1-carbonyl)-2,4-dihydro-3H-1,2,4-triazol-3-one] | <4.52 | <4.57 |  | 
25 | Cc1cnc(C(=O)NCC(C)(Cc2ccc(F)cc2F)C2CC2)[nH]c1=O (centres unmarked) [compound 266] | 7.04 | 5.95 |  | 
